Among the test systems are SF-295; DMS-114; SK-MEL-5; K562; HCT-116; SF-268; M19-MEL; Malme-3M; UACC-257; SF-539; UACC-62; UO-31; OVCAR-5; M14; TK-10; CCRF-CEM.
What all share (assay): inhibition of tumour cell growth, NCI panel, 48 h

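Step 1: Grow cells in 96-well plates. Step 2: Expose to compound for 48 hours at 5 concentrations. Step 3: Interpolate endpoints linearly; if unreached, use highest concentration. GI50: concentration for 50% inhibition of growth.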 Active and inactive are the calls of the source. Cut-off read from the data, not from the text of the source: active = GI50 up to about 1.1 µM and inactive = higher. Where only a bound is given, the exact number is not on record here.

For the compound `NC(=S)N/N=C1\C(=O)N(CCc2ccccc2)C(=O)C1C(=O)NCCc1ccccc1` (configuration not stated), the GI50 with SF-295 was > 100 µM (inactive); with DMS-114, 74.8 µM (inactive); in the assay with SK-MEL-5 it was > 100 µM (inactive); in the assay on K562, > 100 µM (inactive); in the assay on HCT-116, > 100 µM (inactive); in the assay on SF-268 it was > 100 µM (inactive). The GI50 with M19-MEL, with Malme-3M, in the assay on UACC-257, with SF-539, in the assay with UACC-62 and with UO-31 was > 100 µM (inactive) each time. In addition, the GI50 in the assay with OVCAR-5, in the assay with M14 and with TK-10 was > 100 µM (inactive) each time.
Turning to `CC1=C(C(=O)Nc2ccccc2)C(c2ccc(C(C)C)cc2)C(C(=O)Nc2ccccc2)=C(C)N1`, the GI50 with SF-295 is 37.9 µM (inactive); with DMS-114 it was 7.26 µM (inactive); in the assay with SK-MEL-5 it was 12.9 µM (inactive); in the assay on K562, 12.1 µM (inactive); in the assay on HCT-116 it was 12.7 µM (inactive); in the assay on SF-268 it was 22.3 µM (inactive). The GI50 in the assay on M19-MEL was 15.6 µM (inactive); in the assay with Malme-3M, 15.5 µM (inactive); in the assay with SF-539 it was 12.8 µM (inactive); in the assay on UACC-62 it was 13.6 µM (inactive); in the assay with UO-31 it was 12.5 µM (inactive); in the assay on OVCAR-5, 17.3 µM (inactive). Besides, the GI50 in the assay on M14 is 18.2 µM (inactive); in the assay on CCRF-CEM, 13.3 µM (inactive); with TK-10, 48.2 µM (inactive).
On to `C=C1C(=O)OC2/C=C(\C)C(OC(C)=O)C3OC3C(C)(O)CC(OC(=O)/C(C)=C/C)C12` (configuration not stated), for which the GI50 is 19.1 µM (inactive) in the assay with SF-295; 5.45 µM (inactive) in the assay on DMS-114; 13.7 µM (inactive) with SK-MEL-5; 4.35 µM (inactive) with K562; 2.16 µM (inactive) in the assay on HCT-116; 10.9 µM (inactive) in the assay with SF-268. Further, the GI50 in the assay on M19-MEL is 8.49 µM (inactive); with Malme-3M it was 8.69 µM (inactive); with UACC-257, 14.7 µM (inactive); with SF-539, 3.67 µM (inactive); in the assay with UACC-62, 11 µM (inactive); with UO-31, 11 µM (inactive). The GI50 with OVCAR-5 is 17.4 µM (inactive); with M14, 4.65 µM (inactive); in the assay on CCRF-CEM, 2.81 µM (inactive); in the assay with TK-10, 11.9 µM (inactive).
Turning to `CCc1ccccc1NC(=O)CC1NC(=O)CS1` (configuration not stated), the GI50 in the assay with SF-295, with DMS-114, in the assay with SK-MEL-5, in the assay on K562, in the assay on HCT-116 and in the assay on SF-268 was > 100 µM (inactive) throughout. The GI50 in the assay on M19-MEL was > 100 µM (inactive); in the assay on Malme-3M it was 55.2 µM (inactive); with UACC-257 it was > 100 µM (inactive); in the assay on SF-539, > 100 µM (inactive); in the assay with UACC-62, > 100 µM (inactive); with UO-31, > 100 µM (inactive). The GI50 in the assay with OVCAR-5, with M14, in the assay with CCRF-CEM and in the assay with TK-10 was > 100 µM (inactive) in each case.
Consider `COc1cc2c(cc1O)C1C(O)C(O)C=C3CCN(C2)C31` (configuration not stated), for which the GI50 with SF-295 is 2.31 µM (inactive); in the assay on DMS-114 it was 1.09 µM (active); in the assay on SK-MEL-5, 1.46 µM (inactive); in the assay on K562 it was 2.51 µM (inactive); in the assay on HCT-116, 0.158 µM (active); with SF-268, 2.2 µM (inactive). In addition, the GI50 in the assay on M19-MEL was 2.72 µM (inactive); in the assay on Malme-3M it was 0.587 µM (active); in the assay with UACC-257 it was 2.67 µM (inactive); in the assay with SF-539 it was 2.09 µM (inactive); in the assay with UACC-62, 1.69 µM (inactive); in the assay with UO-31, 2.77 µM (inactive). Besides, the GI50 in the assay on OVCAR-5 was 4.39 µM (inactive); in the assay on M14, 1.79 µM (inactive); in the assay on CCRF-CEM, 3.65 µM (inactive); with TK-10, 2.65 µM (inactive).
Consider `CCOC(=O)/C(O)=C(/c1n[nH]c(=O)c2ccccc12)[N+](=O)[O-]`, for which the GI50 with SF-295, with DMS-114, in the assay with SK-MEL-5, with K562, in the assay with HCT-116 and in the assay on SF-268 was > 100 µM (inactive) in each case. Moreover, the GI50 with M19-MEL, in the assay with Malme-3M, in the assay on UACC-257, in the assay with SF-539, with UACC-62 and in the assay on UO-31 was > 100 µM (inactive) in each case. Moreover, the GI50 in the assay with OVCAR-5, in the assay with M14, in the assay on CCRF-CEM and in the assay on TK-10 was > 100 µM (inactive) in each case.
`Cc1cc(Cl)ccc1NC(=O)C1C(=O)N(c2ccc(Cl)cc2C)C(=O)/C1=N\N` (configuration not stated): the GI50 was 28.9 µM (inactive) in the assay on SF-295; 30.1 µM (inactive) in the assay on DMS-114; 30.5 µM (inactive) in the assay with SK-MEL-5; 45.1 µM (inactive) in the assay on K562; 30.5 µM (inactive) with HCT-116; 26.5 µM (inactive) with SF-268. In addition, the GI50 with M19-MEL is 43.2 µM (inactive); in the assay with Malme-3M it was 71.8 µM (inactive); in the assay on UACC-257 it was > 100 µM (inactive); with SF-539, 44.6 µM (inactive); in the assay with UACC-62, 35.8 µM (inactive); with UO-31, 33 µM (inactive). The GI50 in the assay on OVCAR-5 was 60.5 µM (inactive); in the assay on M14, 61.2 µM (inactive); in the assay with CCRF-CEM, 28.6 µM (inactive); with TK-10 it was 34.3 µM (inactive).
In the case of `OCCNCCOc1ccc(/C(=C(/Cl)c2ccccc2)c2ccccc2)cc1`, the GI50 in the assay on SF-295 was 15.2 µM (inactive); in the assay on DMS-114, 15.2 µM (inactive); with SK-MEL-5, 6.25 µM (inactive); in the assay with K562 it was 2.85 µM (inactive); in the assay with HCT-116, 4.99 µM (inactive); with M19-MEL it was 10.9 µM (inactive). Moreover, the GI50 is 0.246 µM (active) with Malme-3M; 2.21 µM (inactive) with UACC-257; 13.6 µM (inactive) in the assay with SF-539; 12.5 µM (inactive) with UACC-62; 9.48 µM (inactive) in the assay with UO-31; 15.1 µM (inactive) in the assay with OVCAR-5. Also, the GI50 was 1.87 µM (inactive) in the assay on M14, 1.92 µM (inactive) with CCRF-CEM and 0.408 µM (active) with TK-10.
With `CCO/C=C1\N=C(c2ccc(Cl)c(Cl)c2)OC1=O`, the GI50 with SF-295 was > 100 µM (inactive); with DMS-114 it was 28.4 µM (inactive); in the assay with SK-MEL-5, > 100 µM (inactive); in the assay on K562, > 100 µM (inactive); with SF-268, > 100 µM (inactive); in the assay on M19-MEL, > 100 µM (inactive). The GI50 was > 100 µM (inactive) in the assay with Malme-3M; > 100 µM (inactive) in the assay with UACC-257; > 100 µM (inactive) with SF-539; > 100 µM (inactive) in the assay on UACC-62; 36.6 µM (inactive) with UO-31; > 100 µM (inactive) in the assay with OVCAR-5. For the same compound, the GI50 in the assay on M14, in the assay with CCRF-CEM and in the assay on TK-10 was > 100 µM (inactive) each time.
Take `O=c1c2ccccc2c2nc3ccccc3nc2n1C1CCCCC1`: the GI50 was 95.3 µM (inactive) in the assay on SF-295; > 100 µM (inactive) in the assay on DMS-114; > 100 µM (inactive) in the assay with SK-MEL-5; > 100 µM (inactive) in the assay on K562; > 100 µM (inactive) in the assay with HCT-116; > 100 µM (inactive) with SF-268. Further, the GI50 with M19-MEL, in the assay with Malme-3M, with UACC-257, in the assay on SF-539, in the assay with UACC-62 and in the assay on UO-31 was > 100 µM (inactive) throughout. Moreover, the GI50 in the assay on OVCAR-5 and in the assay with TK-10 was > 100 µM (inactive) in each case.
`CC(=O)O[C@H]1C(=O)[C@@]2(C)C([C@H](OC(=O)c3ccccc3)[C@]3(O)C[C@H](OC(=O)[C@H](O)[C@H](NC(=O)c4ccccc4)c4ccc(Cl)cc4)C(C)=C1C3(C)C)C1(OC(C)=O)CO[C@@H]1C[C@@H]2O` (some centres not stated): the GI50 in the assay on SF-295 was 0.0194 µM (active); in the assay with DMS-114 it was < 0.0001 µM (active); in the assay with SK-MEL-5, 0.000736 µM (active); in the assay on K562 it was 0.000807 µM (active); in the assay on HCT-116, 0.000113 µM (active); with SF-268 it was 0.00156 µM (active). The GI50 is 0.000302 µM (active) in the assay on M19-MEL; 0.00239 µM (active) in the assay on Malme-3M; 0.00425 µM (active) with UACC-257; 0.000367 µM (active) with SF-539; 0.000376 µM (active) in the assay with UACC-62; 0.733 µM (active) in the assay with UO-31. In addition, the GI50 is 0.00294 µM (active) in the assay with OVCAR-5, 0.00224 µM (active) in the assay with M14, 0.00188 µM (active) in the assay on CCRF-CEM and 0.0226 µM (active) with TK-10.
Regarding `c1ccc(C(c2ccccc2)c2ccccn2)cc1`, the GI50 in the assay on SF-295, in the assay on DMS-114, in the assay on SK-MEL-5, in the assay on K562, in the assay on HCT-116 and with SF-268 was > 100 µM (inactive) in each case. The GI50 in the assay on M19-MEL, in the assay on Malme-3M, in the assay with UACC-257, in the assay on SF-539, in the assay on UACC-62 and in the assay with UO-31 was > 100 µM (inactive) in each case. Further, the GI50 in the assay with OVCAR-5, in the assay with M14, in the assay with CCRF-CEM and with TK-10 was > 100 µM (inactive) each time.
Take `c1ccc2c(c1)[nH]c1c[nH]c3c4cccnc4nc-3c12`: the GI50 with SF-295 was 23.4 µM (inactive); in the assay on DMS-114, 19 µM (inactive); in the assay with SK-MEL-5, 19.4 µM (inactive); in the assay with K562, 21.5 µM (inactive); with HCT-116 it was 17.1 µM (inactive); in the assay with SF-268, 19.7 µM (inactive). Also, the GI50 with M19-MEL is 16.9 µM (inactive); in the assay with Malme-3M it was 25.6 µM (inactive); in the assay with UACC-257 it was 23.9 µM (inactive); in the assay with SF-539, 21.4 µM (inactive); with UACC-62, 15.1 µM (inactive); with UO-31, 15.3 µM (inactive). Also, the GI50 in the assay on OVCAR-5 was 20.3 µM (inactive); with M14, 15 µM (inactive); with CCRF-CEM it was 24.7 µM (inactive); in the assay with TK-10 it was 12.7 µM (inactive).
